Test results as given in patent US7501530B2, “Trifluoromethyl-thiophene carboxylic acid aniledes and use thereof as fungicides” (BASF Aktiengesellschaft, priority 2003, dated 2009).

system: Sphaerotheca fuliginea; test: Protective activity against mildew of cucumber (Use Example 3); assay type: in vivo; details: 63 ppm spray; cucumber seedlings, cotyledon area; inoculated 20 hours after spray coating dried; assessed after 7 days; untreated 90%
Procedure: Protective Activity Against Mildew of Cucumber Caused by Sphaerotheca fuliginea Leaves of potted cucumber seedlings of the cultivar “Chinese Snake”, in the cotyledon stage, were sprayed to runoff point with an aqueous suspension having the concentration stated below of active compounds. The suspension or emulsion was prepared from a stock solution containing 10% of active compound in a mixture comprising 85% of cyclohexanone and 5% of emulsifier. 20 hours after the spray coating had dried on, the plants were inoculated with an aqueous spore suspension of mildew of cucumber (Sphaerotheca fuliginea). The plants were then cultivated in a greenhouse at 20-24° C. and 60-80% relative atmospheric humidity for 7 days. The extent of mildew development was then determined visually in % infection of the cotyledon area.

In order of rising “Foliar infection [%] at 63 ppm” value:
1. O=C(Nc1ccccc1-c1ccc(Cl)cc1)c1sccc1C(F)(F)F [I-6]  0%
2. O=C(Nc1ccccc1-c1ccc(F)cc1)c1sccc1C(F)(F)F [I-7]  0%
3. O=C(Nc1ccccc1-c1ccccc1)c1sccc1C(F)(F)F [I-12]  0%
4. CC(C)c1ccc(-c2ccccc2NC(=O)c2sccc2C(F)(F)F)cc1 [I-13]  0%
5. O=C(Nc1ccccc1-c1ccc(Cl)cc1)c1ccsc1C(F)(F)F [II-6]  0%
6. O=C(Nc1ccccc1C1CCCCC1)c1ccsc1C(F)(F)F [II-3]  3%
7. O=C(Nc1ccccc1C1CCCCC1)c1sccc1C(F)(F)F [I-3]  5%
8. O=C(Nc1ccccc1OC(F)(F)C(F)F)c1sccc1C(F)(F)F [I-5]  5%
9. O=C(Nc1ccccc1-c1ccc(F)cc1)c1ccsc1C(F)(F)F [II-7]  5%

system: Botrytis cinerea; test: Activity and persistency against gray mold on bell-pepper leaves (Use Example 1); assay type: in vivo; details: 63 ppm spray; bell-pepper seedlings; inoculated 7 days after treatment; assessed visually after 5 days; untreated 90%
Procedure: Activity and Persistency against Gray Mold, Caused by Botrytis cinerea, on Bell-pepper Leaves Bell-pepper seedlings of the cultivar “Neusiedler Ideal Elite” having 4-5 well-developed leaves were sprayed to runoff point with an aqueous suspension having the concentration stated below of active compounds. The suspension or emulsion was prepared from a stock solution containing 10% of active compound in a mixture comprising 85% of cyclohexanone and 5% of emulsifier. The plants were then cultivated for a further 7 days, and the treated plants were then inoculated with a spore suspension of Botrytis cinerea, which comprised 1.7×10^6 spores/ml in a 2% strength aqueous biomalt solution. The test plants were then placed in a climatized chamber at 22-24° C. in high atmospheric humidity. After 5 days, the extent of the fungal infection on the leaves could be determined visually in %, giving not only an indication of the fungicidal action of the substances but also of the persistency.

In order of rising “Foliar infection [%] at 63 ppm” value:
1. O=C(Nc1ccccc1-c1ccc(Cl)cc1)c1sccc1C(F)(F)F [I-6]  1%
2. O=C(Nc1ccccc1-c1ccc(F)cc1)c1sccc1C(F)(F)F [I-7]  1%
3. O=C(Nc1ccccc1-c1ccc(F)cc1)c1ccsc1C(F)(F)F [II-7]  1%
4. O=C(Nc1ccccc1C1CCCCC1)c1sccc1C(F)(F)F [I-3]  3%
5. O=C(Nc1ccccc1OC(F)(F)C(F)F)c1sccc1C(F)(F)F [I-5]  3%
6. O=C(Nc1ccccc1OC(F)(F)C(F)F)c1ccsc1C(F)(F)F [II-5]  3%
7. CCC(C)c1ccccc1NC(=O)c1sccc1C(F)(F)F (stereo not drawn) [I-1]  5%
8. O=C(Nc1ccccc1C1CCCCC1)c1ccsc1C(F)(F)F [II-3]  5%
9. CC(C)Oc1cccc(NC(=O)c2ccsc2C(F)(F)F)c1 [II-8, N-(3-isopropoxyphenyl)-2-trifluoromethylthiophene-3-carboxamide]  5%
10. O=C(Nc1ccccc1C1CCCC1)c1sccc1C(F)(F)F [I-2]  7%
11. O=C(Nc1cccc(OC2CCCC2)c1)c1sccc1C(F)(F)F [I-11]  7%
12. CC(C)Oc1cccc(NC(=O)c2sccc2C(F)(F)F)c1 [I-8]  10%
13. O=C(Nc1ccccc1C1CCCC1)c1ccsc1C(F)(F)F [II-2]  10%
14. CCCCCCOc1cccc(NC(=O)c2ccsc2C(F)(F)F)c1 [II-10]  10%

system: not given; test: not given; details: not given

In the case of O=C(Nc1ccccc1OCC(F)(F)F)c1sccc1C(F)(F)F [I-14, N-(2-(2,2,2-trifluoroethoxy)phenyl)-3-trifluoromethylthiophene-2-carboxamide], the melting point is reported as 125 to 127 °C.

system: Botrytis cinerea; test: Protective activity against gray mold on bell-pepper leaves (Use Example 2); assay type: in vivo; details: 250 ppm spray; bell-pepper seedlings; inoculated the next day; assessed visually after 5 days; untreated 100%
Source text: Protective Activity against Gray Mold, Caused by Botrytis cinerea, on Bell-pepper Leaves Bell-pepper seedlings of the cultivar “Neusiedler Ideal Elite” having 4-5 well-developed leaves were sprayed to runoff point with an aqueous suspension having the concentration stated below of active compounds. The active compounds were separately prepared as a stock solution containing 0.25% by weight of active compound in acetone or dimethyl sulfoxide. This solution was admixed with 1% by weight of Emulgator Uniperol® EL (wetting agent based on ethoxylated alkylphenols which has an emulsifying and dispersing effect) and diluted with water to the desired concentration. The next day, the treated plants were inoculated with a spore suspension of Botrytis cinerea, comprising 1.7×10^6 spores/ml in a 2% strength aqueous biomalt solution. The test plants were then placed in a climatized chamber at 22-24° C. in high atmospheric humidity. After 5 days, the extent of the fungal infection on the leaves could be determined visually in %.

In order of rising “Foliar infection [%] at 250 ppm” value:
1. Cc1ccccc1-c1ccccc1NC(=O)c1cscc1C(F)(F)F [III-4]  3%
2. CCC(C)c1ccccc1NC(=O)c1cscc1C(F)(F)F (stereo not drawn) [III-5]  3%
3. O=C(Nc1ccccc1C1CCCC1)c1cscc1C(F)(F)F [III-7]  7%
